The target of experiment [1] is T1, CDK12 (nuclear staining in CAL-120 cells) (Homo sapiens, UniProt Q9NYV4).
T1 construct: endogenous in cells; host or cells: CAL-120 human breast cancer cells (DSMZ ACC 459)
Briefly: CDK12 nuclear protein level: immunofluorescence/high content analysis (CAL-120). The experiment is classed as cell-based. Particulars: for DC50: CAL-120 cells, 24 h, immunofluorescence, 50% reduction of nuclear CDK12 staining intensity, median, read-out: CDK12 degradation IF, DC50- [mol/l] (median); for (IC50 CDK12 high ATP) to (Degradation DC50 CDK12) ratio: ratio of IC50 CDK12 high ATP kinase assay to DC50 CDK12 degradation (IF, CAL-120). An outline of the steps:
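DC50 is the degrader concentration that halves nuclear CDK12 immunofluorescence relative to controls, measured by high-content imaging. CAL-120 cells were exposed to compound for 24 h at 37 °C before PFA fixation, and signal was normalized to DMSO and control wells.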

A further experiment deals with CDK12/CycK (Homo sapiens, UniProt Q9NYV4). Briefly: CDK12/CycK high ATP kinase assay (TR-FRET, 2 mM ATP). The experiment is classed as biochemical. The following applies: 2 mM ATP (high ATP); median; read-out: CDK12/CyclinK, 2 mM ATP (high ATP), IC50-[mol/l] (median). In a few lines: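 Read-out is TR-FRET (Eu-anti-rabbit IgG, anti-phospho-c-Myc Ser62 antibody, streptavidin-XL665) after EDTA stop. Reaction ran 60 min at 22 °C using 1 µM biotin-peptide and high ATP (2 mM) with roughly 0.75 nM recombinant CDK12/CycK, after 15 min compound pre-binding; normalised emission ratios yield IC50.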
Chain of CDK12/CycK (Q9NYV4 with tags, fused parts or gaps): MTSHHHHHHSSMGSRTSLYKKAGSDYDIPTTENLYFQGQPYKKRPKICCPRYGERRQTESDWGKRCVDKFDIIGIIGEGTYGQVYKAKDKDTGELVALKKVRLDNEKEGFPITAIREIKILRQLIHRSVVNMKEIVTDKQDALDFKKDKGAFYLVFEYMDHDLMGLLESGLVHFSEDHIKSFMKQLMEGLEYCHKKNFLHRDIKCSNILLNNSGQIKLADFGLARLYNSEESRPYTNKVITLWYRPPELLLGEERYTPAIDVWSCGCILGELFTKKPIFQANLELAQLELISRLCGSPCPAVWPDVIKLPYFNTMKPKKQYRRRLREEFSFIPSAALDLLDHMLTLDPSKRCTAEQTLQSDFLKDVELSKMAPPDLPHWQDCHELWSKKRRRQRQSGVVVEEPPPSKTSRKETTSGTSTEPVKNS
Chain of CDK12/CycK (O75909 1-300 partner limits assumed): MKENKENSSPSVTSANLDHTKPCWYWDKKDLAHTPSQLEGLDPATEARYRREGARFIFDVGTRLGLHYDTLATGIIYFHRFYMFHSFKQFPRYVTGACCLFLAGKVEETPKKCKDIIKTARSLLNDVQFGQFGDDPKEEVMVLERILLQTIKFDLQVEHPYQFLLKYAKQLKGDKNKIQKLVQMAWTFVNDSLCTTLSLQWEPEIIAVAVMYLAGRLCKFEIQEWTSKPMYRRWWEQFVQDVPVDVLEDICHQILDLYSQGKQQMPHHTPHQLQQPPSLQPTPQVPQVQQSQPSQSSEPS
In general terms: Time-resolved FRET reads energy transfer from a long-lived donor to a nearby acceptor.

T1 sequence (Q9NYV4 whole entry): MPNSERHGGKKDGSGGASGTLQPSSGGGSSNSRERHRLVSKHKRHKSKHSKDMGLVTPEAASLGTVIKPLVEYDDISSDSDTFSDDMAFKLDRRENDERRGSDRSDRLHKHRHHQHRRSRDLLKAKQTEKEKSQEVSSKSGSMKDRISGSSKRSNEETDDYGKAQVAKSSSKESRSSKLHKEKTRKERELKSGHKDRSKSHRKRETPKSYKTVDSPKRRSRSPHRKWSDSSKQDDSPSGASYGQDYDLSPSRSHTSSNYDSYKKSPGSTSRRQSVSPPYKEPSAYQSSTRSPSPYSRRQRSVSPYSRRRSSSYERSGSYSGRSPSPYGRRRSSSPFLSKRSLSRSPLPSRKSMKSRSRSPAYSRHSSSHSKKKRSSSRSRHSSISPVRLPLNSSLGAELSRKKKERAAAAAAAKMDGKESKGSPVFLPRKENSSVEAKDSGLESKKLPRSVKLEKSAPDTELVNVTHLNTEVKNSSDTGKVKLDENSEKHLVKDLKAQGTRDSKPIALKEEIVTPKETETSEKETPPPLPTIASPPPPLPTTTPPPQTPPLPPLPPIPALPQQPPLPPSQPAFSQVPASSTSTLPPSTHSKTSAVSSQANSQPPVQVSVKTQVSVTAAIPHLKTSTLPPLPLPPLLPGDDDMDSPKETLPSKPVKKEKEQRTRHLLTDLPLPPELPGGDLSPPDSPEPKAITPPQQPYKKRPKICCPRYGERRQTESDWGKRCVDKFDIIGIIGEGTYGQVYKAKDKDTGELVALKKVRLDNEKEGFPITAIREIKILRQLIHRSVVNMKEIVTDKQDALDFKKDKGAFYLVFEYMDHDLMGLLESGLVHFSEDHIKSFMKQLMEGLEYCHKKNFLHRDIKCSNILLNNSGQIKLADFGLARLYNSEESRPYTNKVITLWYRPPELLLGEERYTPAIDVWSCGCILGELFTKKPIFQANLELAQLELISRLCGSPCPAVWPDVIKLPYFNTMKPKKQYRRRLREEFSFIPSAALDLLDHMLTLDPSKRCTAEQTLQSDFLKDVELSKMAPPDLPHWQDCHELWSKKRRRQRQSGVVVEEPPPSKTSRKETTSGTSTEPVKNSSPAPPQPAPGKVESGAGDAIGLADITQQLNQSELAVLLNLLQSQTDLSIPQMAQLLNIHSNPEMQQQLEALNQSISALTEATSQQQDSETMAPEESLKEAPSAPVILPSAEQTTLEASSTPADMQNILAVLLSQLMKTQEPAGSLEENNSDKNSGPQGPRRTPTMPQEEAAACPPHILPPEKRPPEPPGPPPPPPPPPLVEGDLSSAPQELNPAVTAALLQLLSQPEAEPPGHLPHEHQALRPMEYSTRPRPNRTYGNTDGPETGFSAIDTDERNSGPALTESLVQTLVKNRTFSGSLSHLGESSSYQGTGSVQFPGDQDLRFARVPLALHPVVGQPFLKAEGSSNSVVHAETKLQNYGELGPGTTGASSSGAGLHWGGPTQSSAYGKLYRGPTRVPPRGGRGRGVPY
T1 sequence (O75909 whole entry partner): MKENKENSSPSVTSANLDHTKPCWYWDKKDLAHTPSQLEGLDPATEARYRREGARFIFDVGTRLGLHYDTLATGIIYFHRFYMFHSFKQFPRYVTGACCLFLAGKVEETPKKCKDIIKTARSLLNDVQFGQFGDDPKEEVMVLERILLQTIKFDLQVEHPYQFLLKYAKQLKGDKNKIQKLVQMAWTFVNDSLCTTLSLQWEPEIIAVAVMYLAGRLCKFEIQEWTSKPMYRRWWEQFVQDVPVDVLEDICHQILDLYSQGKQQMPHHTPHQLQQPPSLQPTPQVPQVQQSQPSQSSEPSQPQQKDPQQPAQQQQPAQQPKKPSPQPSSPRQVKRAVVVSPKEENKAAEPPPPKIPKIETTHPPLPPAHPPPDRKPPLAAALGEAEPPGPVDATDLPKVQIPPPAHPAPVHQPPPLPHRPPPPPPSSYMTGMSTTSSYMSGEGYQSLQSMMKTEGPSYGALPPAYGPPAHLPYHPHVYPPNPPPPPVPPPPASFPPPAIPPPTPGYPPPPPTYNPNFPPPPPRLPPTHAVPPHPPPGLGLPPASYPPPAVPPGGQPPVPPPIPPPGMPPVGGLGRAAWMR

`CC1CN(c2nc(NCc3nc4ccccc4[nH]3)n3ncc(C(C)C)c3n2)CCO1` (racemic) [Example 11, (rac)-N-[(1H-benzimidazol-2-yl)methyl]-2-[2-methylmorpholin-4-yl]-8-(propan-2-yl)pyrazolo[1,5-a][1,3,5]triazin-4-amine]: in experiment [1], the DC50 was 12.6 nM and the “(IC50 CDK12 high ATP) to (Degradation DC50 CDK12) ratio” value is on record as 251. In addition, the IC50 at CDK12/CycK was found to be 3160 nM.
On the same counts, the results for `Cc1cc(-c2cnn3c(NCc4nc5ccccc5[nH]4)nc(N4CCN(C)CC4)nc23)ccn1` [Example 243, N-[(1H-benzimidazol-2-yl)methyl]-2-(4-methylpiperazin-1-yl)-8-(2-methylpyridin-4-yl)pyrazolo[1,5-a][1,3,5]triazin-4-amine] are 267 nM, greater than 75 and greater than 20000 nM.
On to `COCCNc1nc(NCc2nc3ccccc3[nH]2)n2ncc(Br)c2n1` [Example 230, N4-(1H-benzimidazol-2-ylmethyl)-8-bromo-N2-(2-methoxyethyl)pyrazolo[1,5-a][1,3,5]triazine-2,4-diamine], for which, in experiment [1], the DC50 was 66 nM and the “(IC50 CDK12 high ATP) to (Degradation DC50 CDK12) ratio” value is listed as greater than 303. In addition, at CDK12/CycK, the IC50 is greater than 20000 nM.
On to `COC(C)(C)CNc1nc(NCc2nc3ccccc3[nH]2)n2ncc(Br)c2n1` [Example 236, N4-(1H-benzimidazol-2-ylmethyl)-8-bromo-N2-(2-methoxy-2-methyl-propyl)pyrazolo[1,5-a][1,3,5]triazine-2,4-diamine], for which the DC50 in experiment [1] was found to be 7.18 nM. In addition, the IC50 on CDK12/CycK is greater than 17900 nM.
With `COc1cccc2[nH]c(CNc3nc(N4C[C@H]5C[C@@H]4CO5)nc4c(C5CC5)cnn34)nc12` [Example 198, 8-cyclopropyl-N-[(4-methoxy-1H-benzimidazol-2-yl)methyl]-2-[(1R,4R)-2-oxa-5-azabicyclo[2.2.1]heptan-5-yl]pyrazolo[1,5-a][1,3,5]triazin-4-amine], in experiment [1], the DC50 turned out to be 34.9 nM and the “(IC50 CDK12 high ATP) to (Degradation DC50 CDK12) ratio” value turned out to be 214. Besides, the IC50 on CDK12/CycK came out at 7480 nM.
With `OC1CCCN(c2nc(NCc3nc4ccccc4[nH]3)n3ncc(Br)c3n2)C1` (racemic) [Example 16, (rac)-1-(4-{[(1H-benzimidazol-2-yl)methyl]amino}-8-bromopyrazolo[1,5-a][1,3,5]triazin-2-yl)piperidin-3-ol], in experiment [1], the DC50 was found to be 4.54 nM and the “(IC50 CDK12 high ATP) to (Degradation DC50 CDK12) ratio” value was determined as 1528. For the same molecule, the IC50 at CDK12/CycK amounted to 6940 nM.
For `Cc1ccc2[nH]c(CNc3nc(N4CCNCC4)nc4c(Br)cnn34)nc2c1` [Example 204, 8-bromo-N-[(5-methyl-1H-benzimidazol-2-yl)methyl]-2-(piperazin-1-yl)pyrazolo[1,5-a][1,3,5]triazin-4-amine], in that order: 0.619 nM, 7019 and 4340 nM.
On the same counts, the results for `CN1CCN(c2nc(NCc3nc4ccccc4[nH]3)n3ncc(-c4ccncc4)c3n2)CC1` [Example 242, N-[(1H-benzimidazol-2-yl)methyl]-2-(4-methylpiperazin-1-yl)-8-(pyridin-4-yl)pyrazolo[1,5-a][1,3,5]triazin-4-amine] are 107 nM, greater than 188 and greater than 20000 nM.
In the case of `CO[C@H]1CCN(c2nc(NCc3nc4ccccc4[nH]3)n3ncc(Br)c3n2)C1` [Example 222, N-[(1H-benzimidazol-2-yl)methyl]-8-bromo-2-[(3S)-3-methoxypyrrolidin-1-yl]pyrazolo[1,5-a][1,3,5]triazin-4-amine], in experiment [1], the DC50 was found to be 48.8 nM and the “(IC50 CDK12 high ATP) to (Degradation DC50 CDK12) ratio” value was determined as 123. Further, the IC50 at CDK12/CycK amounted to 6010 nM.
On the same counts, the results for `CN(CCO)c1nc(NCc2nc3ccccc3[nH]2)n2ncc(Br)c2n1` [Example 237, 2-[(4-{[(1H-benzimidazol-2-yl)methyl]amino}-8-bromopyrazolo[1,5-a][1,3,5]triazin-2-yl)(methyl)amino]ethan-1-ol] are 128 nM, 58 and 7350 nM.
On the same counts, the results for `O=C1CN(c2nc(NCc3nc4ccccc4[nH]3)n3ncc(Br)c3n2)CCN1` [Example 167, 4-(4-{[(1H-benzimidazol-2-yl)methyl]amino}-8-bromopyrazolo[1,5-a][1,3,5]triazin-2-yl)piperazin-2-one] are 16.9 nM, 420 and 7120 nM.
Consider `CN1CC2CCC(C1)N2c1nc(NCc2nc3ccccc3[nH]2)n2ncc(Br)c2n1` [Example 226, N-(1H-benzimidazol-2-ylmethyl)-8-bromo-2-(3-methyl-3,8-diazabicyclo[3.2.1]octan-8-yl)pyrazolo[1,5-a][1,3,5]triazin-4-amine], for which, in experiment [1], the DC50 was 27.6 nM and the “(IC50 CDK12 high ATP) to (Degradation DC50 CDK12) ratio” value is listed as greater than 725. Besides, at CDK12/CycK, the IC50 was greater than 20000 nM.
Take `C[C@H]1CN(c2nc(NCc3nc4ccccc4[nH]3)n3ncc(Br)c3n2)CCN1` [Example 169, N-[(1H-benzimidazol-2-yl)methyl]-8-bromo-2-[(3S)-3-methylpiperazin-1-yl]pyrazolo[1,5-a][1,3,5]triazin-4-amine]: in experiment [1], the DC50 turned out to be 1.09 nM and the “(IC50 CDK12 high ATP) to (Degradation DC50 CDK12) ratio” value was 12610. In addition, the IC50 on CDK12/CycK is 13700 nM.
For `CN1CC2CCC1CN2c1nc(NCc2nc3ccccc3[nH]2)n2ncc(Br)c2n1` (centres unmarked) [Example 221, N-(1H-benzimidazol-2-ylmethyl)-8-bromo-2-(5-methyl-2,5-diazabicyclo[2.2.2]octan-2-yl)pyrazolo[1,5-a][1,3,5]triazin-4-amine], in that order: 4.68 nM, 1704 and 7980 nM.
On the same counts, the results for `Cc1ccc2[nH]c(CNc3nc(N4C[C@@H](C)N[C@@H](C)C4)nc4c(Br)cnn34)nc2c1` [Example 209, 8-bromo-2-[(3R,5S)-3,5-dimethylpiperazin-1-yl]-N-[(5-methyl-1H-benzimidazol-2-yl)methyl]pyrazolo[1,5-a][1,3,5]triazin-4-amine] are 0.471 nM, 14455 and 6800 nM.
On to `Cc1ccc2[nH]c(CNc3nc(N4C[C@@H](C)N[C@@H](C)C4)nc4c(C5CC5)cnn34)nc2c1` [Example 194, 8-cyclopropyl-2-[(3R,5S)-3,5-dimethylpiperazin-1-yl]-N-[(5-methyl-1H-benzimidazol-2-yl)methyl]pyrazolo[1,5-a][1,3,5]triazin-4-amine], for which, in experiment [1], the DC50 was 0.23 nM and the “(IC50 CDK12 high ATP) to (Degradation DC50 CDK12) ratio” value is on record as 16078. At CDK12/CycK, the IC50 was found to be 3700 nM.
For the molecule `OC[C@@H]1CCCCN1c1nc(NCc2nc3c(F)cccc3[nH]2)n2ncc(C3CC3)c2n1` [Example 189, [(2S)-1-(8-cyclopropyl-4-{[(4-fluoro-1H-benzimidazol-2-yl)methyl]amino}pyrazolo[1,5-a][1,3,5]triazin-2-yl)piperidin-2-yl]methanol], in experiment [1], the DC50 was found to be 0.557 nM and the “(IC50 CDK12 high ATP) to (Degradation DC50 CDK12) ratio” value amounted to 20. The IC50 on CDK12/CycK is 10.9 nM.
For `CN(C)[C@H]1CCN(c2nc(NCc3nc4ccccc4[nH]3)n3ncc(Br)c3n2)C1` [Example 177, N-[(1H-benzimidazol-2-yl)methyl]-8-bromo-2-[(3S)-3-(dimethylamino)pyrrolidin-1-yl]pyrazolo[1,5-a][1,3,5]triazin-4-amine], in that order: 35.7 nM, greater than 561 and greater than 20000 nM.
On the same counts, the results for `Cc1ccc2[nH]c(CNc3nc(N4C[C@H]5C[C@@H]4CO5)nc4c(Br)cnn34)nc2c1` [Example 192, 8-bromo-N-[(5-methyl-1H-benzimidazol-2-yl)methyl]-2-[(1R,4R)-2-oxa-5-azabicyclo[2.2.1]heptan-5-yl]pyrazolo[1,5-a][1,3,5]triazin-4-amine] are 0.56 nM, 15180 and 8500 nM.
For `CCN(C)c1nc(NCc2nc3ccccc3[nH]2)n2ncc(Br)c2n1` [Example 233, N4-(1H-benzimidazol-2-ylmethyl)-8-bromo-N2-ethyl-N2-methyl-pyrazolo[1,5-a][1,3,5]triazine-2,4-diamine], in that order: 103 nM, 73 and 7540 nM.
With `COc1cccc2[nH]c(CNc3nc(N4CCNCC4)nc4c(C5CC5)cnn34)nc12` [Example 211, 8-cyclopropyl-N-[(4-methoxy-1H-benzimidazol-2-yl)methyl]-2-(piperazin-1-yl)pyrazolo[1,5-a][1,3,5]triazin-4-amine], in experiment [1], the DC50 was 2.32 nM and the “(IC50 CDK12 high ATP) to (Degradation DC50 CDK12) ratio” value is 1184. The IC50 on CDK12/CycK stood at 2740 nM.
For `COc1cccc2[nH]c(CNc3nc(N4C[C@@H](C)N[C@@H](C)C4)nc4c(C5CC5)cnn34)nc12` [Example 212, 8-cyclopropyl-2-[(3R,5S)-3,5-dimethylpiperazin-1-yl]-N-[(4-methoxy-1H-benzimidazol-2-yl)methyl]pyrazolo[1,5-a][1,3,5]triazin-4-amine], in that order: 1.09 nM, 3798 and 4150 nM.

Values taken from US20230117034A1, “PYRAZOLOTRIAZINES” (Bayer Aktiengesellschaft, priority 2019, published 2023).
